Measurements from ChEMBL document CHEMBL1201862, “PubChem BioAssay data set” (2004).
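Tested at 5 concentrations; 48 h exposure; 96-well plates; endpoints linearly interpolated, else capped at highest concentration. Abbreviation: GI50, concentration required for 50% inhibition of growth.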 Activity calls are given as the source filed them. No stated cut-off is given here; in the data, active = GI50 up to about 1.1 µM and inactive = higher.

Legend:
Assay in all cases: inhibition of tumour cell growth, NCI panel, 48 h
786-0 = system: 786-0
A498 = system: A498
A549 = system: A549
ACHN = system: ACHN
CCRF-CEM = system: CCRF-CEM
COLO 205 = system: COLO 205
DLD-1 = system: DLD-1
DMS-114 = system: DMS-114
DMS-273 = system: DMS-273
EKVX = system: EKVX
HCC 2998 = system: HCC 2998
HCT-116 = system: HCT-116
HCT-15 = system: HCT-15
HL-60 = system: HL-60
HOP-18 = system: HOP-18
HOP-62 = system: HOP-62
HOP-92 = system: HOP-92
HT-29 = system: HT-29
IGROV-1 = system: IGROV-1
K562 = system: K562
KM-20L2 = system: KM-20L2
KM12 = system: KM12
LOX IMVI = system: LOX IMVI
LXFL 529 = system: LXFL 529
M14 = system: M14
M19-MEL = system: M19-MEL
Malme-3M = system: Malme-3M
NCI-H226 = system: NCI-H226
NCI-H23 = system: NCI-H23
NCI-H460 = system: NCI-H460
NCI-H522 = system: NCI-H522
OVCAR-3 = system: OVCAR-3
OVCAR-4 = system: OVCAR-4
OVCAR-5 = system: OVCAR-5
OVCAR-8 = system: OVCAR-8
RXF 393 = system: RXF 393
RXF 631 = system: RXF 631
SF-268 = system: SF-268
SF-295 = system: SF-295
SF-539 = system: SF-539
SK-MEL-28 = system: SK-MEL-28
SK-MEL-2 = system: SK-MEL-2
SK-MEL-5 = system: SK-MEL-5
SK-OV-3 = system: SK-OV-3
SN12C = system: SN12C
SNB-19 = system: SNB-19
SNB-75 = system: SNB-75
SNB-78 = system: SNB-78
SW-620 = system: SW-620
TK-10 = system: TK-10
U-251 = system: U-251
UACC-257 = system: UACC-257
UACC-62 = system: UACC-62
UO-31 = system: UO-31
XF498 = system: XF498
CAKI-1 = system: CAKI-1
MOLT-4 = system: MOLT-4
RPMI-8226 = system: RPMI-8226
SR = system: SR

Q: With `COc1c(O)ccc(/C=N/NC(=S)NCOCCOC(C)=O)c1OC` as the molecule, how does the GI50 (786-0) read?
A: > 100 µM (inactive)

Q: What about the GI50 (A498) of the same molecule?
A: > 100 µM (inactive)

Q: What about the GI50 (A549) of the same molecule?
A: > 100 µM (inactive)

Q: And the GI50 (ACHN)?
A: > 100 µM (inactive)

Q: And the GI50 (CCRF-CEM)?
A: > 100 µM (inactive)

Q: What about the GI50 (COLO 205) of the same molecule?
A: > 100 µM (inactive)

Q: And the GI50 (DLD-1)?
A: > 100 µM (inactive)

Q: And the GI50 (DMS-114)?
A: > 100 µM (inactive)

Q: And the GI50 (DMS-273)?
A: > 100 µM (inactive)

Q: And the GI50 (EKVX)?
A: > 100 µM (inactive)

Q: What about the GI50 (HCC 2998) of the same molecule?
A: > 100 µM (inactive)

Q: And the GI50 (HCT-116)?
A: > 100 µM (inactive)

Q: What about the GI50 (HCT-15) of the same molecule?
A: > 100 µM

Q: What about the GI50 (HL-60) of the same molecule?
A: > 100 µM (inactive)

Q: What about the GI50 (HOP-18) of the same molecule?
A: > 100 µM (inactive)

Q: What about the GI50 (HOP-62) of the same molecule?
A: > 100 µM (inactive)

Q: What about the GI50 (HOP-92) of the same molecule?
A: > 100 µM (inactive)

Q: And the GI50 (HT-29)?
A: > 100 µM (inactive)

Q: And the GI50 (IGROV-1)?
A: > 100 µM (inactive)

Q: What about the GI50 (K562) of the same molecule?
A: > 100 µM (inactive)

Q: What about the GI50 (KM-20L2) of the same molecule?
A: > 100 µM (inactive)

Q: And the GI50 (KM12)?
A: > 100 µM (inactive)

Q: And the GI50 (LOX IMVI)?
A: > 100 µM (inactive)

Q: What about the GI50 (LXFL 529) of the same molecule?
A: > 100 µM (inactive)

Q: What about the GI50 (M14) of the same molecule?
A: > 100 µM (inactive)

Q: And the GI50 (M19-MEL)?
A: > 100 µM (inactive)

Q: What about the GI50 (Malme-3M) of the same molecule?
A: > 100 µM (inactive)

Q: And the GI50 (NCI-H226)?
A: > 100 µM (inactive)

Q: And the GI50 (NCI-H23)?
A: > 100 µM (inactive)

Q: What about the GI50 (NCI-H460) of the same molecule?
A: > 100 µM (inactive)

Q: What about the GI50 (NCI-H522) of the same molecule?
A: > 100 µM (inactive)

Q: And the GI50 (OVCAR-3)?
A: > 100 µM (inactive)

Q: And the GI50 (OVCAR-4)?
A: > 100 µM (inactive)

Q: And the GI50 (OVCAR-5)?
A: > 100 µM (inactive)

Q: And the GI50 (OVCAR-8)?
A: > 100 µM (inactive)

Q: What about the GI50 (RXF 393) of the same molecule?
A: > 100 µM (inactive)

Q: What about the GI50 (RXF 631) of the same molecule?
A: > 100 µM (inactive)

Q: What about the GI50 (SF-268) of the same molecule?
A: > 100 µM (inactive)

Q: And the GI50 (SF-295)?
A: > 100 µM (inactive)

Q: What about the GI50 (SF-539) of the same molecule?
A: > 100 µM (inactive)

Q: And the GI50 (SK-MEL-28)?
A: > 100 µM (inactive)

Q: What about the GI50 (SK-MEL-2) of the same molecule?
A: > 100 µM (inactive)

Q: And the GI50 (SK-MEL-5)?
A: > 100 µM (inactive)

Q: And the GI50 (SK-OV-3)?
A: > 100 µM (inactive)

Q: What about the GI50 (SN12C) of the same molecule?
A: > 100 µM (inactive)

Q: What about the GI50 (SNB-19) of the same molecule?
A: > 100 µM (inactive)

Q: What about the GI50 (SNB-75) of the same molecule?
A: > 100 µM (inactive)

Q: What about the GI50 (SNB-78) of the same molecule?
A: > 100 µM (inactive)

Q: What about the GI50 (SW-620) of the same molecule?
A: > 100 µM (inactive)

Q: And the GI50 (TK-10)?
A: > 100 µM (inactive)

Q: What about the GI50 (U-251) of the same molecule?
A: > 100 µM (inactive)

Q: What about the GI50 (UACC-257) of the same molecule?
A: > 100 µM (inactive)

Q: And the GI50 (UACC-62)?
A: > 100 µM (inactive)

Q: And the GI50 (UO-31)?
A: > 100 µM (inactive)

Q: And the GI50 (XF498)?
A: > 100 µM (inactive)

Q: Which GI50 (786-0) does the source give for `COc1ccc(/C=C2\CCC(C)(CN(C)C)C2=O)cc1` (configuration not stated) here?
A: > 100 µM (inactive)

Q: What about the GI50 (A498) of the same molecule?
A: > 100 µM (inactive)

Q: What about the GI50 (A549) of the same molecule?
A: > 100 µM (inactive)

Q: What about the GI50 (ACHN) of the same molecule?
A: > 100 µM (inactive)

Q: And the GI50 (CAKI-1)?
A: 18.7 µM (inactive)

Q: What about the GI50 (COLO 205) of the same molecule?
A: > 100 µM (inactive)

Q: And the GI50 (DLD-1)?
A: > 100 µM (inactive)

Q: What about the GI50 (DMS-114) of the same molecule?
A: 76 µM (inactive)

Q: What about the GI50 (DMS-273) of the same molecule?
A: > 100 µM (inactive)

Q: And the GI50 (EKVX)?
A: > 100 µM (inactive)

Q: What about the GI50 (HCC 2998) of the same molecule?
A: > 100 µM (inactive)

Q: What about the GI50 (HCT-116) of the same molecule?
A: > 100 µM (inactive)

Q: And the GI50 (HCT-15)?
A: 60.8 µM

Q: What about the GI50 (HL-60) of the same molecule?
A: 56.4 µM (inactive)

Q: What about the GI50 (HOP-18) of the same molecule?
A: > 100 µM (inactive)

Q: What about the GI50 (HOP-62) of the same molecule?
A: > 100 µM (inactive)

Q: What about the GI50 (HOP-92) of the same molecule?
A: > 100 µM (inactive)

Q: What about the GI50 (HT-29) of the same molecule?
A: > 100 µM (inactive)

Q: What about the GI50 (IGROV-1) of the same molecule?
A: > 100 µM (inactive)

Q: And the GI50 (K562)?
A: 64 µM (inactive)

Q: And the GI50 (KM-20L2)?
A: > 100 µM (inactive)

Q: And the GI50 (KM12)?
A: > 100 µM (inactive)

Q: And the GI50 (LOX IMVI)?
A: > 100 µM (inactive)

Q: And the GI50 (LXFL 529)?
A: > 100 µM (inactive)

Q: And the GI50 (M14)?
A: > 100 µM (inactive)

Q: What about the GI50 (M19-MEL) of the same molecule?
A: > 100 µM (inactive)

Q: And the GI50 (MOLT-4)?
A: > 100 µM (inactive)

Q: And the GI50 (Malme-3M)?
A: > 100 µM (inactive)

Q: And the GI50 (NCI-H226)?
A: > 100 µM (inactive)

Q: And the GI50 (NCI-H23)?
A: > 100 µM (inactive)

Q: What about the GI50 (NCI-H460) of the same molecule?
A: > 100 µM (inactive)

Q: What about the GI50 (NCI-H522) of the same molecule?
A: 16.3 µM (inactive)

Q: And the GI50 (OVCAR-3)?
A: > 100 µM (inactive)

Q: What about the GI50 (OVCAR-4) of the same molecule?
A: > 100 µM (inactive)

Q: What about the GI50 (OVCAR-5) of the same molecule?
A: > 100 µM (inactive)

Q: What about the GI50 (OVCAR-8) of the same molecule?
A: > 100 µM (inactive)

Q: And the GI50 (RPMI-8226)?
A: 38 µM (inactive)

Q: And the GI50 (RXF 393)?
A: > 100 µM (inactive)

Q: What about the GI50 (RXF 631) of the same molecule?
A: 40.4 µM (inactive)

Q: What about the GI50 (SF-268) of the same molecule?
A: > 100 µM (inactive)

Q: What about the GI50 (SF-295) of the same molecule?
A: > 100 µM (inactive)

Q: And the GI50 (SF-539)?
A: > 100 µM (inactive)

Q: And the GI50 (SK-MEL-28)?
A: > 100 µM (inactive)

Q: And the GI50 (SK-MEL-2)?
A: > 100 µM (inactive)

Q: And the GI50 (SK-MEL-5)?
A: > 100 µM (inactive)

Q: And the GI50 (SN12C)?
A: > 100 µM (inactive)

Q: What about the GI50 (SNB-19) of the same molecule?
A: 6.18 µM (inactive)

Q: What about the GI50 (SNB-75) of the same molecule?
A: > 100 µM (inactive)

Q: And the GI50 (SNB-78)?
A: > 100 µM (inactive)

Q: What about the GI50 (SR) of the same molecule?
A: > 10 µM (inactive)

Q: And the GI50 (SW-620)?
A: > 100 µM (inactive)

Q: And the GI50 (TK-10)?
A: > 100 µM (inactive)

Q: And the GI50 (U-251)?
A: 76.4 µM (inactive)

Q: And the GI50 (UACC-257)?
A: > 100 µM (inactive)

Q: And the GI50 (UACC-62)?
A: > 100 µM (inactive)

Q: What about the GI50 (UO-31) of the same molecule?
A: > 100 µM (inactive)

Q: And the GI50 (XF498)?
A: > 100 µM (inactive)
